Series [1] deals with MEIS1 mRNA. Put plainly: MEIS1 mRNA expression assay (Quantigene Singleplex) in MOLM14 cells.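 Also: MEIS1 transcript levels read by probe hybridization and normalized to RPL28 mRNA, with IC50 fitted to fold changes across a rising compound concentration series.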 In kind it is cell-based, human. To be noted: Homo sapiens, MOLM-14, 48 h, 48 hours incubation.
In series [2] the test system is KO-52 cells. Put plainly: Proliferation assay (spheroid growth, 8 days), KO-52 control cell line. In kind it is cell-based, human. Conditions: Homo sapiens, […], read-out: spheroid assay_OneTime KO-52 IC50. In outline:
(§1)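 200 MOLM14 (MLL-AF9), 200 OCI-AML3 (NPM1c) or 300 KO-52 (MLL wildtype) cells were grown as spheroids in ultra-low attachment wells with compound, 0.3% DMSO, for 8 days at 37 °C. Confluence was imaged on day 8, normalized to DMSO and top-dose reference compound. IC50 came from a variable-slope fit constrained 0–100%.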

The test system of series [3] is OCI-AML3 cells. The experiment in a line: Proliferation assay (spheroid growth, 8 days), OCI-AML3. To be noted: Homo sapiens, OCI-AML-3, […], OCI-AML3, 8 days. Format: cell-based, human. In outline: as §1
The target in series [4] is menin/MLL (terbium chelate-labeled menin, FITC-MBM1 peptide) (Homo sapiens (Human), UniProt O00255). The experiment in a line: Menin/MLL homogenous time-resolved fluorescence (HTRF) assay.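 Also: IC50 from percent inhibition of HTRF signal, normalized between wells without competitor and wells with a saturating competitor that displaces FITC-MBM1 from His-tagged menin.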 Format: binding. Conditions: HTRF-30 min incubation IC50, 30 min incubation.
Chain of menin/MLL (terbium chelate-labeled menin, FITC-MBM1 peptide) (O00255 other isoform, or with tags, fused parts or gaps): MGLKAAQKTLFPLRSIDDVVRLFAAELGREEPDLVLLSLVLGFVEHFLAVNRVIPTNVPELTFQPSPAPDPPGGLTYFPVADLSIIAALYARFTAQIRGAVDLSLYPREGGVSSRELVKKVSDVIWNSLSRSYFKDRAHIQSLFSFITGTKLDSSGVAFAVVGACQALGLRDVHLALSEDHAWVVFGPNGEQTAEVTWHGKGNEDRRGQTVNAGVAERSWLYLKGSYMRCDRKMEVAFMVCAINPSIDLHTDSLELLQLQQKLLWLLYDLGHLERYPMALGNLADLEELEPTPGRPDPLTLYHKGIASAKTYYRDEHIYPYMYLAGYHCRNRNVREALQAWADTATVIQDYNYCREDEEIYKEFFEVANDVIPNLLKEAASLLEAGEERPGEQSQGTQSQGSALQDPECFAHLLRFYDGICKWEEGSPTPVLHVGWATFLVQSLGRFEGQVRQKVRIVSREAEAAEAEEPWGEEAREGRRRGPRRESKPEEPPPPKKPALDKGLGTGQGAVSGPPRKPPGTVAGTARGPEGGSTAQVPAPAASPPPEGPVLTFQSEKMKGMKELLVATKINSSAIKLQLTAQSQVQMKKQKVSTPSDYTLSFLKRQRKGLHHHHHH
The test system of series [5] is MOLM14 cells. Put plainly: Proliferation assay (spheroid growth, 8 days), MOLM14.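 Also: spheroid size read as confluence by live-cell imaging, compounds added at a range of concentrations with 0.3% DMSO, DMSO-treated wells = 0%, highest reference dose = low control.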 Format: cell-based, human. Conditions: Homo sapiens, MOLM-14, […], MOLM14, 8 days; read-out: spheroid assay_OneTime MOLM14 IC50.
In series [6] the target is hERG (Homo sapiens (Human), UniProt Q12809). The experiment in a line: Effect on membrane potassium current IKr in hERG-transfected HEK293 cells, Protocol 2 (SyncroPatch 384PE). In kind it is cell-based. To be noted: Protocol 2, hERG-transfected HEK293 cells. As to the method: 8) Effect on the Membrane Potassium Current IKr in hERG Transfected Cell Lines
Chain of hERG (Q12809 whole entry): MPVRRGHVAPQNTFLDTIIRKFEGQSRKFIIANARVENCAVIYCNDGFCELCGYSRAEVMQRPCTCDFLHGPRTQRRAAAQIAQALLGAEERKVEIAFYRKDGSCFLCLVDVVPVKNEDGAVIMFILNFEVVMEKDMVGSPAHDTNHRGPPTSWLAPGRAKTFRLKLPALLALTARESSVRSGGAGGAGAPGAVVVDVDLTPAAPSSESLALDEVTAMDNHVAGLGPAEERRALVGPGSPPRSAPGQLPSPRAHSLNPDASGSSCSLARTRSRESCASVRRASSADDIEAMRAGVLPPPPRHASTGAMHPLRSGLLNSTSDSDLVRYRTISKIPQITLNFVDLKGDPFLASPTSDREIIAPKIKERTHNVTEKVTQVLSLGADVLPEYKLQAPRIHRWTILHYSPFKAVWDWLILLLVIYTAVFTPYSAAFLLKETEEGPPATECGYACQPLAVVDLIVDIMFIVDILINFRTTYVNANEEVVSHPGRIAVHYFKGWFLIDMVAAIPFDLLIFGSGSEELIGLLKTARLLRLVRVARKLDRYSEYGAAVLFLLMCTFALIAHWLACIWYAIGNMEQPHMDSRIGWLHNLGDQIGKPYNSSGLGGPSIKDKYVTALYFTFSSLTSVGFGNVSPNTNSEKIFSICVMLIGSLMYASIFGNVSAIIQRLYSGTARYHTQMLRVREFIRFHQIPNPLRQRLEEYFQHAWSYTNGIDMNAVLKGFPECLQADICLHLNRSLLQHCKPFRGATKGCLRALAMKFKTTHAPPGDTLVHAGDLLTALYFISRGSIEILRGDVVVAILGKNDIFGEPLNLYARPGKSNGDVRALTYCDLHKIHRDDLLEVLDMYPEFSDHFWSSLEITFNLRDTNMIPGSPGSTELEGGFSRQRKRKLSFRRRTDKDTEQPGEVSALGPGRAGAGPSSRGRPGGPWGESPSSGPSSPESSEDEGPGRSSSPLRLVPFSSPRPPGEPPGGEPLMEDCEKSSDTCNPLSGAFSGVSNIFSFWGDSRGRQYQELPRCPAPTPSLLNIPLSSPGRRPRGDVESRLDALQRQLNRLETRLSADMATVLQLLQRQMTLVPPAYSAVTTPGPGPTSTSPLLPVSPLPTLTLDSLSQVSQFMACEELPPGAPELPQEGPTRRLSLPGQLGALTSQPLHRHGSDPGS
The compound, vehicle control and positive control were tested on hERG-transfected HEK293 cells. A human embryonic kidney cell line (HEK293) with a stable transfection of hERG (Zhou Z et al. Biophysical Journal 1998. 74, 230-241; McDonald T. V. et al, Nature 1997. 388, 289-292) was used (University of Wisconsin, Madison, USA). The cells were kept in culture in MEM (Minimum Essential Medium, Gibco) which was supplemented with (amounts indicated added to 500 ml MEM): 5 ml L-Glutamine-Penicillin-Streptomycin (Sigma), 50 ml Fetal Bovine serum (Bio-Whittaker), 5 ml Non-essential Amino Acids 100× (Gibco), 5 ml sodium pyruvate 100 mM (Gibco) and 4 ml geneticin 50 mg/ml (Gibco) using T175 flasks. The cells were incubated at 37° C. in 5% CO2 atmosphere (in air).
Cell Harvesting for Assay
Cells were harvested as described below using Accumax™ (Sigma) as the dissociating reagent. Cells were then resuspended in a mixture of 33% DMEM/F12 (Dulbecco's Modified Eagle Medium/Nutrient Mixture F-12—Sigma) media/67% extracellular physiological solution.
The flasks were washed twice carefully with ˜5-10 ml phosphate buffered saline (PBS) (Gibco™) containing 2 mM EDTA (Ethylenediaminetetraacetic acid) (Sigma). The cells were dissociated using ˜3 ml of Accumax™ (cell detachment solution) and incubated for ˜5 to 10 min. at 37° C. Cold external physiological solution (2-5 ml) was added and the flasks are incubated at ˜4° C. for 5-10 min. Then, the cell suspension in each flask was gently dissociated with a 5 ml pipette. The cell suspension was transferred to a low binding petri-dish (˜[…]). Each flask was washed with ˜additional 5 ml cold external physiological solution and this solution was also added to the petri-dish. The petri-dish was then incubated for another 5 to 10 minutes at ˜4° C. After another gentle dissociation of the cell suspension in the petri dish, the cells were transferred to a reservoir kept on an orbital shaker at 200 rpm at 16° C. Before experiments were performed, the cells recovered for ˜20 min.
A 10 mM solution of the compound was used and plated in a 384 well plate. Aliquots of the stock solutions are diluted with the recording solution (see section 3) using automated liquid handling (Biomek FXP; final DMSO concentration: 0.03 to 0.3%). A standard range of screening concentrations was used ranging from 1 μM to 30 μM.
A positive control (E-4031) was included within each run to evaluate the sensitivity of the assay.
External and Intracellular Solutions Used in the Experiments
In the table below the composition of the intracellular and external buffer solutions is shown in [mM] (“NMDG” means N-methyl-D-glucamine)
The whole cell patch clamp technique on transfected cells allows the study of ion-channels with no—or limited interference from other ion-channels. The effects of the compounds on the hERG current were studied with an automated planar patch clamp system, SyncroPatch 384PE (Obergrussberger et al, Journal of Laboratory Automation 2016. 21 (6). 779-793). All cells were recorded in the whole cell mode of the patch clamp technique. The module is incorporated in a liquid handling pipetting robot system, Biomek FXP, for application of cells and compounds, vehicle control and positive control.
The different concentrations of the compounds were applied in two cumulatively increasing concentrations for the compounds (1 μM and 10 μM, and 3 μM and 30 μM, respectively). The hERG current was determined as the maximal tail current at −30 mV and percent inhibition upon compound or vehicle and positive control addition was reported.
After cells are caught onto the individual holes of the recording chips using the chip fill solution, the seal is increased with the seal enhancer solution (increased [Ca^2+]; then the cells were washed twice with recording solution before using a pressure protocol to go into the whole cell mode. […]

A short description of series [7]: Metabolic stability in human liver microsomes. In kind it is in vitro ADME. Conditions: human liver microsomes 0.5 mg/mL, 1 μM test compound, pH 7.4; read-out: Human LM Clint. As to the method: (§2) 4) Metabolic Stability in Human/Mouse Liver Microsomes
(§3) The objective of this study is to measure in vitro metabolic stability of test compound(s) in human and mouse liver microsomes and provide quantitative information on the rate of metabolic turnover (i.e. determination of the apparent intrinsic clearance of test).
(§4) Test items were prepared at a stock concentration of 10 mM in DMSO. For determination of metabolic turnover, a final working solution was prepared by adding 2 μL of 10 mM DMSO stock solution for test compound or positive control compounds to 198 μL of acetonitrile (100 μM final concentration).
(§5) Incubations were performed as follows: First, liver microsomes were thawed on ice and a master solution containing liver microsomes in 100 mM PBS (phosphate-buffered saline) at pH 7.4 is prepared. Next, the liver microsomes solution was added to the incubation plates and 10 mM NADPH (Nicotinamide-adenine dinucleotide phosphate) was added (MW: 833.4 g/mol; Roche Diagnostics GmbH, Germany. Dissolved in phosphate buffer (100 mmol/L, pH 7.4)). The mixture was mixed for 10 seconds and pre-warmed in the incubation plate at 37° C. for 10 minutes. The metabolic reaction was initiated with the addition of 5 μL of the 100 μM working solution for test compound or positive control compounds to incubation plate (final test item concentration=1 μM). The reaction final mixture should contain 1 mM NADPH, 0.5 mg/mL microsomes protein and 1 μM test compound or positive control compound in 100 mM PBS at pH 7.4. The percentage of organic solvent in incubation mixture is 1% with DMSO ≤0.02%.
(§6) The reaction was quenched by transferring 50 μL of the incubated mixture at selected time points into the quenching plate containing 200 μL of cold methanol. After sampling of all the timepoints the quenching plate was centrifuged at 4000 rpm for 40 minutes to precipitate protein. A total of 90 μL of the supernatant was transferred to an analysis plate and ultra-pure H2O water is added into each well for LC/MS/MS analysis. All incubations and analysis were performed in duplicate.
(§7) All calculations were carried out using Microsoft Excel. The slope value, k, was determined by linear regression of the natural logarithm of the remaining percentage of the parent drug vs. incubation time curve.
(§8) The in vitro half-life (in vitro tin) was determined from the slope value: in vitro t1/2=−(0.693/k)
(§9) Conversion of the in vitro tin (in min) into the in vitro intrinsic clearance (in vitro CLint, in μL/min/mg proteins) was done using the following equation: […]

Series [8] can be described thus: Mouse PK (in vivo T1/2 and oral bioavailability). Conditions: fasted male CD-1 mice, formulating agent HP-β-CD. As to the method: 3) Mouse PK (In Vivo T1/2 and Oral Bioavailability)
In vivo pharmacokinetics (PK) were assessed in fasted male CD-1 mice (age 6-8 weeks) following a single intravenous (IV, 0.5 or 1.0 mg/kg administered at 2.5 ml/kg) or oral (PO, 5 mg/kg administered at 10 ml solution/kg) dose of test article formulated in a 20% (w:vol) HP-β-CD solution or in Pyrogen free water.
Plasma and/or whole blood samples were collected from the dorsal metatarsal vein at desired timepoints via serial capillary microsampling (approx. 0.03 mL) using EDTA as an anticoagulant. Concentrations of compound in the plasma and blood samples were analyzed using a qualified LC-MS/MS method. In silico analysis of main pharmacokinetic parameters was performed using WinNonlin (Phoenix™, version 6.1) or similar software. (Results see Table 4)

The nature of series [9]: Metabolic stability in mouse liver microsomes. Format: in vitro ADME. Conditions: mouse liver microsomes 0.5 mg/mL, 1 μM test compound, pH 7.4; read-out: Mouse LM Clint. As to the method:
as §2, §3, §4, §5, §6, §7, §8, §9

For series [10], the target named is hERG potassium channel (Homo sapiens (Human), UniProt Q12809). Put plainly: Effect on membrane potassium current IKr in hERG transfected CHO cells, Protocol 1 (QPatch). In kind it is cell-based. In outline:
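Whole-cell automated patch clamp on CHO cells stably expressing hERG, held at −80 mV; the value is the tail current at −40 mV after a 2 s step to +60 mV, at pH 7.4 bath and pH 7.2 pipette. After 0.3% DMSO control, compound was applied at 3×10^−7 M, 3×10^−6 M, 10^−5 M and 3×10^−5 M, 5 min each. IC50 comes from a non-linear least-squares fit of block versus vehicle.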

Each structure is given as a SMILES string. pIC50: −log10 of the molar value. Structures can show the parent of a compound that is named as a salt.

Results on five compounds are retold here after patent publication US12473295B2, “Substituted straight chain spiro derivatives” (Janssen Pharmaceutica NV, priority 2019, dated 2025).

Chain of hERG potassium channel (Q12809 whole entry): as above

For `CCN(C)CCC[C@H](C(C)C)N1CC2(CCN(c3ncnnc3Oc3ccc(F)cc3C(=O)N(CC)C(C)C)C2)C1` (single isomer, unassigned) [Compound 132, (*R)—N-ethyl-2-((5-(2-(6-(ethyl(methyl)amino)-2-methylhexan-3-yl)-2,6-diazaspiro[3.4]octan-6-yl)-1,2,4-triazin-6-yl)oxy)-5-fluoro-N-isopropylbenzamide fumarate], the pIC50 in [1] was 7.82; in series [2], 4.98; in series [3] it was 6.72; in series [4], 9.96; in series [5], 7.48; in series [6], below 4.52.
On to `CCN(C)C[C@H](O)C[C@H](C(C)C)N1CC2(CCN(c3ncnnc3Oc3ccc(F)cc3C(=O)N(CC)C(C)C)C2)C1.O=C(O)/C=C/C(=O)O` (single isomer, unassigned) [Compound 346, N-ethyl-2-((5-(2-((3*R,5R)-6-(ethyl(methyl)amino)-5-hydroxy-2-methylhexan-3-yl)-2,6-diazaspiro[3.4]octan-6-yl)-1,2,4-triazin-6-yl)oxy)-5-fluoro-N-isopropylbenzamide fumarate], for which the pIC50 was 7.48 in series [1]; below 4.82 in series [2]; 6.89 in series [3]; 10.24 in series [4]; 7.44 in series [5]. For the same compound, the microsomal CLint at 1 μM in [7] is 11 µL/min/mg; in series [9], below 7.5 µL/min/mg. In series [8] (single IV 0.5 or 1.0 mg/kg), the half-life was 5.2 h. In series [8] (single PO 5 mg/kg), the bioavailability was determined as 5.1%.
Regarding `CC(C)[C@@H](CCCN(C)C)N1CC2(CCN(c3ncnnc3Oc3ccc(F)cc3C(=O)N(C(C)C)C(C)C)C2)C1` (single isomer, unassigned) [Compound 396, (*R)-2-((5-(2-(6-(dimethylamino)-2-methylhexan-3-yl)-2,6-diazaspiro[3.4]octan-6-yl)-1,2,4-triazin-6-yl)oxy)-5-fluoro-N,N-diisopropylbenzamide oxalate], the pIC50 was 7.77 in series [1]; 5.07 in [2]; below 4.52 in series [10]; 6.85 in series [3]; 10.10 in series [4]; 7.64 in [5]. Moreover, the microsomal CLint at 1 μM in [7] was 22 µL/min/mg; in series [9], below 7.5 µL/min/mg.
On to `CCN(C(=O)c1cc(F)ccc1Oc1nncnc1N1CCC2(C1)CN([C@H](CCCN(C)CCC#N)C(C)C)C2)C(C)C` [Compound 13], for which the pIC50 in [1] was 7.11; in series [2], below 4.82; in series [10], 4.59; in series [3] it was 6.68; in series [4], 9.40; in [5], 7.21. Besides, the results for the microsomal CLint at 1 μM in [7] and in series [9] were 75 µL/min/mg and 44 µL/min/mg, respectively.
Regarding `O=C(O)/C=C/C(=O)O.[2H]C([2H])(COC)N(C)CCC[C@H](C(C)C)N1CC2(CCN(c3ncnnc3Oc3ccc(F)cc3C(=O)N(CC)C(C)C)C2)C1` [Compound 233, (R)-N-ethyl-5-fluoro-N-isopropyl-2-((5-(2-(6-((2-methoxyethyl-1,1-d2)(methyl)amino)-2-methylhexan-3-yl)-2,6-diazaspiro[3.4]octan-6-yl)-1,2,4-triazin-6-yl)oxy)benzamide fumarate], the pIC50 in series [2] was 5.30; in series [3], 6.82; in [5], 7.59; in series [6] it was below 4.52.
